Here are results for five molecules from ChEMBL document CHEMBL1759884, “Synthesis and evaluation of bibenzyl glycosides as potent tyrosinase inhibitors” (Eur J Med Chem, 2011).

In this assay the target is Tyrosinase (Agaricus bisporus). As to the kind of experiment: Inhibition of Tyrosinase.
The molecule `OC[C@H]1O[C@@H](Oc2ccc(CCc3ccc(O)cc3O)c(O)c2)[C@H](O)[C@@H](O)[C@@H]1O` came in with an IC50 of 770 nM. This counts as sub-micromolar. The molecule `OC[C@H]1O[C@@H](O[C@H]2[C@H](O)[C@@H](O)[C@H](Oc3ccc(CCc4ccc(O)cc4O)c(O)c3)O[C@@H]2CO)[C@H](O)[C@@H](O)[C@@H]1O` showed an IC50 of 680 nM.

`OC[C@H]1O[C@H](O[C@H]2[C@H](O)[C@@H](O)[C@H](Oc3ccc(CCc4ccc(O)cc4O)c(O)c3)O[C@@H]2CO)[C@H](O)[C@@H](O)[C@@H]1O` displayed an IC50 of 830 nM. This IC50 and that of the molecule before are within 1.5-fold of each other. The molecule `Oc1ccc(CCc2ccc(O)cc2O[C@@H]2OC[C@@H](O)[C@H](O)[C@H]2O)c(O)c1` showed an IC50 of 1600 nM. Against the preceding molecule, the IC50 is about 1.9-fold higher. For `Oc1ccc(CCc2ccc(O[C@@H]3OC[C@@H](O)[C@H](O)[C@H]3O)cc2O)c(O)c1` the value was 430 nM.
